Measurements reported in patent US20100184047A1, “SCREENING AND THERAPEUTIC METHOD FOR NSCLC TARGETING THE CDCA8-AURKB COMPLEX” (ONCOTHERAPY SCIENCE, INC., priority 2007, published 2010).
Entries after “also recorded” stand apart in the source; their conditions may differ.

Key:
Assay type in all cases: cell-based, human
LC319 cells [1] = assay: MTT assay after siRNA-expression vector transfection; settings: 7 days after G418 treatment, vs control siRNAs
Source text: (§1) A vector-based RNA interference (RNAi) system, psiH1BX3.0, which was designed to synthesize siRNAs in mammalian cells was previously established (Suzuki C, et al., Cancer Res. 2003 Nov. 1; 63(21):7038-41; Kato T, et al., Cancer Res. 2005 Jul. 1; 65(13):5638-46; Furukawa C, et al., Cancer Res. 2005 Aug. 15; 65(16):7102-10; Suzuki C, et al., Cancer Res. 2005 Dec. 15; 65(24):11314-25. Ishikawa N, et al., Cancer Sci. 2006 August; 97(8):737-45; Takahashi K, et al., Cancer Res. 2006 Oct. 1; 66(19):9408-19; Hayama S, et al., Cancer Res. 2006 Nov. 1; 66(21):10339-48). 10 micrograms of siRNA-expression vector was transfected using 30 microliters of Lipofectamine 2000 (Invitrogen) into lung-cancer cell lines, LC319 and SBC-5. The transfected cells were cultured for seven days in the presence of appropriate concentrations of geneticin (G418), and the number of colonies was counted by Giemsa staining, and viability of cells was evaluated by MTT assay (cell-counting kit-8 solution; DOJINDO, Kumamoto, Japan), at 7 days after the G418 treatment. To confirm suppression of CDCA8 protein expression, western blotting was carried out with affinity-purified polyclonal antibody to CDCA8 according to the standard protocol. The target sequences of the synthetic oligonucleotides for RNAi were as follows: […]

SBC-5 cells [2] = assay: as above; settings: 7 days after G418 treatment, vs control siRNAs
Source text: as §1

CDCA8 [3] = assay: RNA interference with si-CDCA8 vectors, western blot of CDCA8 protein; settings: in comparison with two control siRNAs (EGFP, Luciferase)
Protocol: (§2) Cells were lysed in lysis buffer; 50 mM Tris-HCl (pH 8.0), 150 mM NaCl, 0.5% NP-40, 0.5% deoxycholate-Na, 0.1% SDS, plus protease inhibitor (Protease Inhibitor Cocktail Set III; Calbiochem Darmstadt, Germany). An ECL western-blot analysis system was used (GE Healthcare Bio-sciences, Piscataway, N.J.), as previously described (Kato T, et al., Cancer Res. 2005 Jul. 1; 65(13):5638-46; Furukawa C, et al., Cancer Res. 2005 Aug. 15; 65(16):7102-10).
as §1

LC319 cells [4] = assay: Colony formation assay after siRNA-expression vector transfection; settings: Giemsa staining, vs control siRNAs
Source text: as §1

SBC-5 cells [5] = assay: as above; settings: Giemsa staining, vs control siRNAs
Source text: as §1

CDCA8 [6] = assay: Western blot of endogenous CDCA8 protein after AURKB knock-down; settings: LC319 cells
Protocol: as §2
(§3) A vector-based RNA interference (RNAi) system, psiH1BX3.0, which was designed to synthesize siRNAs in mammalian cells was previously established (Suzuki C, et al., Cancer Res. 2003 Nov. 1; 63(21):7038-41; Kato T, et al., Cancer Res. 2005 Jul. 1; 65(13):5638-46; Furukawa C, et al., Cancer Res. 2005 Aug. 15; 65(16):7102-10; Suzuki C, et al., Cancer Res. 2005 Dec. 15; 65(24):11314-25. Ishikawa N, et al., Cancer Sci. 2006 August; 97(8):737-45; Takahashi K, et al., Cancer Res. 2006 Oct. 1; 66(19):9408-19; Hayama S, et al., Cancer Res. 2006 Nov. 1; 66(21):10339-48). 10 micrograms of siRNA-expression vector was transfected using 30 microliters of Lipofectamine 2000 (Invitrogen) into lung-cancer cell lines, LC319 and SBC-5. The transfected cells were cultured for seven days in the presence of appropriate concentrations of geneticin (G418), and the number of colonies was counted by Giemsa staining, and viability of cells was evaluated by MTT assay (cell-counting kit-8 solution; DOJINDO, Kumamoto, Japan), at 7 days after the G418 treatment. To confirm suppression of CDCA8 protein expression, western blotting was carried out with affinity-purified polyclonal antibody to CDCA8 according to the standard protocol. The target sequences of the synthetic oligonucleotides for RNAi were as follows:
Furthermore, to inhibit the AURKB activity in mammalian cells, siRNA oligos were constructed against AURKB (si-AURKB-#1 and -#2), as well as control siRNA oligos for EGFP. The target sequences of the synthetic oligonucleotides for RNAi were as follows:
(§4) Cells seeded onto 10 cm-dishes were incubated in mixtures of both Lipofectamine (Invitrogen) and control 3 (5′-GAAGCAGCACGACUUCUUC-3′ (SEQ ID NO: 61)) or si-AURKBs (#1: 5′-CCAAACUGCUCAGGCAUAA-3′ (SEQ ID NO: 62);
(§5) #2: 5′-ACGCGGCACUUCACAAUUG-3′ (SEQ ID NO: 63)) in a final concentration of 100 nM. At 4 hours after transfection, the siRNA-lipofectamine mixtures were replaced with fresh media. The cells were collected and analyzed after additional 72-hour culture.

AURKB = AURKB knock-down by siRNA against AURKB, western blot; settings: LC319 cells
Protocol: as §2, §3
Furthermore, to inhibit the AURKB activity in mammalian cells, siRNA oligos were constructed against AURKB (si-AURKB-#1 and -#2), as well as control siRNA oligos for EGFP. […]
#2: 5′-ACGCGGCACUUCACAAUUG-3′ (SEQ ID NO: 63)) in a final concentration of 100 nM. […] The cells were collected and analyzed after additional 72-hour culture.

CDCA8 transcripts = assay: Semi-quantitative RT-PCR of CDCA8 transcript after AURKB knock-down; settings: LC319 cells
Protocol: Total RNA was extracted from cultured cells and clinical tissues using Trizol reagent (Life Technologies, Inc., Gaithersburg, Md.) according to the manufacturer's protocol. Extracted RNAs and normal human tissue poly(A) RNAs were treated with DNase I (Nippon Gene, Tokyo, Japan) and reversely-transcribed using oligo (dT) primer and SuperScript II reverse transcriptase (Invitrogen, Carlsbad, Calif.). Semi-quantitative RT-PCR experiments were carried out with the following synthesized CDCA8-specific primers, AURKB-specific primers, E2F-1-specific primers, or with beta-actin (ACTB)-specific primers as an internal control:
as §4, §5

5′-CAGCAGAAGCTATTCAGAC-3′ (CAGCAGAAGCTATTCAGACTTCAAGAGAGTCTGAATAGCTTCTGCTG; expressed or natural sequence) [si-CDCA8-#1]
cell viability (MTT assay) (LC319 cells [1]): significant decreases
cell viability (MTT assay) (SBC-5 cells [2]): significant decreases
expression of endogenous CDCA8 proteins (CDCA8 [3]; LC319 cells): significantly suppressed
expression of endogenous CDCA8 proteins (CDCA8 [3]; SBC-5 cells): significantly suppressed
colony numbers (colony-formation assay) (LC319 cells [4]): significant decreases
colony numbers (colony-formation assay) (SBC-5 cells [5]): significant decreases

5′-CCAAACUGCUCAGGCAUAA-3′ (listed as RNA, chemistry not given here) [si-AURKB-#1]
amount of CDCA8 protein (CDCA8 [6]): dramatically decreased
AURKB expression / AURKB protein (AURKB): Reduction
level of CDCA8 transcripts (CDCA8 transcripts): not influenced

5′-ACGCGGCACUUCACAAUUG-3′ (listed as RNA, chemistry not given here) [si-AURKB-#2]
amount of CDCA8 protein (CDCA8 [6]): dramatically decreased
AURKB expression / AURKB protein (AURKB): Reduction
level of CDCA8 transcripts (CDCA8 transcripts): not influenced

5′-GCCGTGCTAACACTGTTAC-3′ (GCCGTGCTAACACTGTTACTTCAAGAGAGTAACAGTGTTAGCACGGC; expressed or natural sequence) [si-CDCA8-#2]
cell viability (MTT assay) (LC319 cells [1]): significant decreases
cell viability (MTT assay) (SBC-5 cells [2]): significant decreases
expression of endogenous CDCA8 proteins (CDCA8 [3]; LC319 cells): significantly suppressed
expression of endogenous CDCA8 proteins (CDCA8 [3]; SBC-5 cells): significantly suppressed
colony numbers (colony-formation assay) (LC319 cells [4]): significant decreases
colony numbers (colony-formation assay) (SBC-5 cells [5]): significant decreases

5′-GGTGATTCACAGAGACATA-3′ (GGTGATTCACAGAGACATATTCAAGAGATATGTCTCTGTGAATCACC; expressed or natural sequence) [si-AURKB]
amount of CDCA8 protein (CDCA8 [6]): decreased
phosphorylation levels of CDCA8 (CDCA8 [6]): decreased
AURKB expression / AURKB protein (AURKB): selectively knocked down; also recorded: Reduction
level of CDCA8 transcripts (CDCA8 transcripts): not influenced
